Source: patent publication US20080318788A1, “Microcapsule” (priority 2005, published 2008)

Assay: Photo stabilisation study of COMPOUND (V) in gelatine microcapsules exposed to daylight, HPLC assay
Assay type: physicochemical
Conditions: Chocolate Brown dyed gelatine capsules, 88 hours exposure to daylight (8 hours daylight over 11 days)
Description: The HPLC system was from Waters comprising of two 510 pumps, a 717 plus Autosampler, a System Interface Module, a Lambda-Max 480 detector and Millennium Chromatography Manager software. Chromatography was achieved on a Zorbax ODS 5 μm C18 analytical column of dimension 4.6×250 mm internal diameter maintained at 35° C. Mobile phases were unmodified water (Milli-Q grade) in reservoir A and unmodified acetonitrile in reservoir B. Linear gradient elution was used with 70 to 90% B over the first 10 minutes, then 100% B for 3 minutes and returning to 70% B over 4 minutes. Injection cycle time was 20 minutes with a flow rate of 2 ml/min. The samples were either dissolved in acetonitrile or diethyl ether and 10 μl volume injected on to the column which was maintained at 35° C. Prior to use, mobile phase were degassed under vacuum with sonication and continuously sparged with helium. The naphthoquinones were detected by measurement of UV absorbance at 269 nm.
A batch of gelatine microcapsules containing 300 mg of COMPOUND (V) in 15 ml of Exxsol® D100 was produced.
The capsule slurry was washed repeatedly with water to remove debris and filtered to obtain a wet cake. An aliquot of the wet cake (11.3 g) was made up to 50 ml and dyed brown with Chocolate Brown (500 mg, equivalent to 10 mg/ml solution). Aliquots (200 μl) of microcapsule slurry of brown and undyed capsules were applied to glass microscope slides in duplicate. The slurry from each batch was spread to form a monolayer of microcapsules on each slide. The slides were air dried in a dark at room temperature (≅21° C.) and exposed to daylight on a south-facing windowsill for various time periods. Two slides from each batch were analysed per time point post of exposure. Unexposed slides stored in the dark were used as time zero reference.
The contents of the capsules were extracted by rupturing the capsules, by rolling a glass rod on the slides, and washing both the rod and the slide with diethyl ether. The extracts were made up to 10 ml and assayed by HPLC.

For `CC(=O)OC1=C(C(C)CCC[Si](C)(C)C)C(=O)c2ccccc2C1=O` (stereo not shown) [COMPOUND (V)], the “amount of COMPOUND (V) remaining, % of the initial amount” value was about 80%.

Same assay, conditions: undyed impervious gelatine capsules, 6 hours exposure to daylight

For `CC(=O)OC1=C(C(C)CCC[Si](C)(C)C)C(=O)c2ccccc2C1=O` (stereo not shown) [COMPOUND (V)], the “amount of COMPOUND (V) remaining, % of the initial amount” value was 60%.

Same assay, conditions: undyed impervious gelatine capsules, 16 hours exposure to daylight

For `CC(=O)OC1=C(C(C)CCC[Si](C)(C)C)C(=O)c2ccccc2C1=O` (stereo not shown) [COMPOUND (V)], the “amount of COMPOUND (V) remaining, % of the initial amount” value was 23%.

Same assay, conditions: undyed impervious gelatine capsules, 40 hours exposure to daylight (8 hours daylight over 5 days)

For `CC(=O)OC1=C(C(C)CCC[Si](C)(C)C)C(=O)c2ccccc2C1=O` (stereo not shown) [COMPOUND (V)], the “amount of COMPOUND (V) remaining, % of the initial amount” value was 6%.

Assay: Water solubility of UV protection dyes
Conditions: not given

Going from `Cc1nn(-c2ccccc2)c([O-])c1N=Nc1cc([N+](=O)[O-])cc(S(=O)(=O)[O-])c1[O-].[Cr+3].[Na+].[OH-]` [Acid Orange 74] to `Nc1cc(N)c(N=Nc2cccc3c(S(=O)(=O)O)cccc23)cc1N=Nc1cc([N+](=O)[O-])ccc1O.[Na]` [Mordant Brown 1], the “WATER SOLUBILITY” value rises from 20 mg/mL to 60 mg/mL (3-fold).

Compared with `Nc1ccc(N=Nc2cccc(N=Nc3ccc(N)cc3N)c2)c(N)c1` [Bismark Brown Y], `CCN(CC)c1ccc(N=Nc2ccccc2C(=O)O)cc1` [Ethyl Red] is 17-fold lower in “WATER SOLUBILITY” value: 50 mg/mL for the first, 3 mg/mL for the second.

First: O=S1(=O)OC(c2ccc(O)c(Cl)c2)(c2ccc(O)c(Cl)c2)c2ccccc21 [Chlorophenol Red]
Second: CC(=O)Nc1ccc2nc3c4ccccc4c(=N)cc-3oc2c1.Cl [Darrow Red]
The “WATER SOLUBILITY” value of the first is 60-fold higher: 60 mg/mL for the first, 1 mg/mL for the second.

Compared with `Nc1cc(N)c(S(=O)(=O)[O-])cc1N=Nc1cc([N+](=O)[O-])ccc1O.[Na+]` [Mordant Brown 33], `O=S(=O)([O-])c1ccc2c(N=Nc3ccccc3)c(O)ccc2c1.[Na+]` [Crocein Orange G] is 2-fold higher in “WATER SOLUBILITY” value: 20 mg/mL for the first, 40 mg/mL for the second.

`CCN(CC)c1ccc(N=Nc2ccc(S(=O)(=O)[O-])cc2)cc1.[K+]` [Ethyl Orange] and `Cc1cc(N=Nc2ccc(C)c(N=Nc3cc(C)c(N)cc3N)c2)c(N)cc1N` [Bismark Brown R] are within 1.5-fold of each other in “WATER SOLUBILITY” value: 100 mg/mL for the first, 70 mg/mL for the second.

Compared with `Cc1cc(O)ccc1C1(c2ccc(O)cc2C)OS(=O)(=O)c2ccccc21` [m-Cresol Purple], `Cc1cc(N=Nc2cc([N+](=O)[O-])cc([N+](=O)[O-])c2O)c(N)cc1N` [Mordant Brown 4] is 30-fold higher in “WATER SOLUBILITY” value: 2 mg/mL for the first, 60 mg/mL for the second.

`Nc1cc(N)c(N=Nc2cc([N+](=O)[O-])cc([N+](=O)[O-])c2O)cc1Cl` [Mordant Brown 48] and `CC1=NN(c2ccc(S(=O)(=O)[O-])cc2)C(=O)C1N=Nc1ccc(-c2ccc(N=Nc3ccc(OS(=O)(=O)c4ccc(C)cc4)cc3)c(S(=O)(=O)[O-])c2)cc1.[Na+].[Na+]` (stereo not shown) [Acid Orange 63] are within 1.5-fold of each other in “WATER SOLUBILITY” value: 40 mg/mL for the first, 50 mg/mL for the second.

In the case of Acid Orange 51, the “WATER SOLUBILITY” value is reported as 30 mg/mL.
